Assay results taken from ChEMBL document CHEMBL1201862, “PubChem BioAssay data set” (2004).
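Where inhibition never reached the appropriate level, the endpoint shown equals the highest concentration tested. Otherwise, values were interpolated linearly from a five-concentration, 48-hour dose response in 96-well plates. Abbreviation: GI50, concentration required for 50% inhibition of growth.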 The source made the active and inactive calls. Cut-off read from the data, not from the text of the source: active = GI50 up to about 1.1 µM and inactive = higher.

Assays:
Assay in all cases: growth of human tumour cells (NCI), 48 h
SK-MEL-5 = test system: SK-MEL-5
HT-29 = test system: HT-29
UO-31 = test system: UO-31
HCT-15 = test system: HCT-15
PC-3 = test system: PC-3
TK-10 = test system: TK-10
K562 = test system: K562
T47D = test system: T47D
SK-MEL-2 = test system: SK-MEL-2
RPMI-8226 = test system: RPMI-8226
OVCAR-5 = test system: OVCAR-5
LOX IMVI = test system: LOX IMVI
UACC-257 = test system: UACC-257
ACHN = test system: ACHN
A549 = test system: A549
SK-MEL-28 = test system: SK-MEL-28
Hs-578T = test system: Hs-578T
SW-620 = test system: SW-620
EKVX = test system: EKVX
HCC 2998 = test system: HCC 2998
IGROV-1 = test system: IGROV-1
M14 = test system: M14
COLO 205 = test system: COLO 205
HL-60 = test system: HL-60
SR = test system: SR
CCRF-CEM = test system: CCRF-CEM
RXF 393 = test system: RXF 393
SF-268 = test system: SF-268
MDA-N = test system: MDA-N
NCI/ADR-RES = test system: NCI/ADR-RES
MOLT-4 = test system: MOLT-4
NCI-H23 = test system: NCI-H23
SN12C = test system: SN12C
MDA-MB-435 = test system: MDA-MB-435
SF-539 = test system: SF-539
OVCAR-8 = test system: OVCAR-8
BT-549 = test system: BT-549
786-0 = test system: 786-0
SNB-75 = test system: SNB-75
U-251 = test system: U-251
SNB-19 = test system: SNB-19
HCT-116 = test system: HCT-116
MCF7 = test system: MCF7
HOP-92 = test system: HOP-92
MDA-MB-231 = test system: MDA-MB-231
OVCAR-3 = test system: OVCAR-3
NCI-H460 = test system: NCI-H460
SK-OV-3 = test system: SK-OV-3
Malme-3M = test system: Malme-3M
UACC-62 = test system: UACC-62
NCI-H522 = test system: NCI-H522
HOP-62 = test system: HOP-62
A498 = test system: A498
NCI-H226 = test system: NCI-H226
DU-145 = test system: DU-145
KM12 = test system: KM12
OVCAR-4 = test system: OVCAR-4
CAKI-1 = test system: CAKI-1

## CCOC(=O)C(NC(=O)CC)(Nc1cc(C)on1)C(F)(F)F (stereo unspecified)
SK-MEL-5
  GI50: > 100 µM (inactive)
HT-29
  GI50: > 100 µM (inactive)
UO-31
  GI50: > 100 µM (inactive)
HCT-15
  GI50: > 100 µM
PC-3
  GI50: > 100 µM (inactive)
TK-10
  GI50: > 100 µM (inactive)
K562
  GI50: > 100 µM (inactive)
T47D
  GI50: > 100 µM (inactive)
SK-MEL-2
  GI50: > 100 µM (inactive)
RPMI-8226
  GI50: > 100 µM (inactive)
OVCAR-5
  GI50: > 100 µM (inactive)
LOX IMVI
  GI50: > 100 µM (inactive)
UACC-257
  GI50: > 100 µM (inactive)
ACHN
  GI50: > 100 µM (inactive)
A549
  GI50: > 100 µM (inactive)
SK-MEL-28
  GI50: > 100 µM (inactive)
Hs-578T
  GI50: > 100 µM (inactive)
SW-620
  GI50: > 100 µM (inactive)
EKVX
  GI50: > 100 µM (inactive)
HCC 2998
  GI50: > 100 µM (inactive)
IGROV-1
  GI50: > 100 µM (inactive)
M14
  GI50: > 100 µM (inactive)
COLO 205
  GI50: > 100 µM (inactive)
HL-60
  GI50: > 100 µM (inactive)
SR
  GI50: > 100 µM (inactive)
CCRF-CEM
  GI50: > 100 µM (inactive)
RXF 393
  GI50: > 100 µM (inactive)
SF-268
  GI50: > 100 µM (inactive)
MDA-N
  GI50: > 100 µM (inactive)
NCI/ADR-RES
  GI50: > 100 µM (inactive)
MOLT-4
  GI50: > 100 µM (inactive)
NCI-H23
  GI50: > 100 µM (inactive)
SN12C
  GI50: > 100 µM (inactive)
MDA-MB-435
  GI50: > 100 µM (inactive)
SF-539
  GI50: > 100 µM (inactive)
OVCAR-8
  GI50: > 100 µM (inactive)
BT-549
  GI50: > 100 µM (inactive)
786-0
  GI50: > 100 µM (inactive)
SNB-75
  GI50: > 100 µM (inactive)
U-251
  GI50: > 100 µM (inactive)
SNB-19
  GI50: > 100 µM (inactive)
HCT-116
  GI50: > 100 µM (inactive)

## Cc1cn(C2CC(N)C(C(=O)O)O2)c(=O)[nH]c1=O (stereo unspecified)
SK-MEL-5
  GI50: > 100 µM (inactive)
MCF7
  GI50: > 100 µM (inactive)
HT-29
  GI50: > 100 µM (inactive)
UO-31
  GI50: > 100 µM (inactive)
HCT-15
  GI50: > 100 µM
PC-3
  GI50: > 100 µM (inactive)
TK-10
  GI50: > 100 µM (inactive)
K562
  GI50: > 100 µM (inactive)
SK-MEL-2
  GI50: > 100 µM (inactive)
HOP-92
  GI50: > 100 µM (inactive)
MDA-MB-231
  GI50: > 100 µM (inactive)
RPMI-8226
  GI50: > 100 µM (inactive)
OVCAR-5
  GI50: > 100 µM (inactive)
UACC-257
  GI50: > 100 µM (inactive)
ACHN
  GI50: > 100 µM (inactive)
OVCAR-3
  GI50: > 100 µM (inactive)
A549
  GI50: > 100 µM (inactive)
Hs-578T
  GI50: > 100 µM (inactive)
NCI-H460
  GI50: > 100 µM (inactive)
SW-620
  GI50: > 100 µM (inactive)
SK-OV-3
  GI50: > 100 µM (inactive)
Malme-3M
  GI50: > 100 µM (inactive)
UACC-62
  GI50: > 100 µM (inactive)
EKVX
  GI50: > 100 µM (inactive)
NCI-H522
  GI50: > 100 µM (inactive)
HCC 2998
  GI50: > 100 µM (inactive)
IGROV-1
  GI50: > 100 µM (inactive)
M14
  GI50: > 100 µM (inactive)
HOP-62
  GI50: > 100 µM (inactive)
COLO 205
  GI50: > 100 µM (inactive)
HL-60
  GI50: > 100 µM (inactive)
A498
  GI50: > 100 µM (inactive)
SR
  GI50: > 100 µM (inactive)
CCRF-CEM
  GI50: > 100 µM (inactive)
SF-268
  GI50: > 100 µM (inactive)
NCI-H226
  GI50: > 100 µM (inactive)
MDA-N
  GI50: > 100 µM (inactive)
NCI/ADR-RES
  GI50: > 100 µM (inactive)
MOLT-4
  GI50: > 100 µM (inactive)
DU-145
  GI50: > 100 µM (inactive)
NCI-H23
  GI50: > 100 µM (inactive)
SN12C
  GI50: > 100 µM (inactive)
MDA-MB-435
  GI50: > 100 µM (inactive)
KM12
  GI50: > 100 µM (inactive)
SF-539
  GI50: > 100 µM (inactive)
OVCAR-4
  GI50: > 100 µM (inactive)
OVCAR-8
  GI50: > 100 µM (inactive)
BT-549
  GI50: > 100 µM (inactive)
786-0
  GI50: > 100 µM (inactive)
SNB-75
  GI50: > 100 µM (inactive)
U-251
  GI50: > 100 µM (inactive)
CAKI-1
  GI50: > 100 µM (inactive)
SNB-19
  GI50: > 100 µM (inactive)
HCT-116
  GI50: > 100 µM (inactive)
